For the assay, the target named is T1, Oligopeptidase B (OPB) (Leishmania major, UniProt Q4QHU7).
T1 sequence (Q4QHU7 1-731): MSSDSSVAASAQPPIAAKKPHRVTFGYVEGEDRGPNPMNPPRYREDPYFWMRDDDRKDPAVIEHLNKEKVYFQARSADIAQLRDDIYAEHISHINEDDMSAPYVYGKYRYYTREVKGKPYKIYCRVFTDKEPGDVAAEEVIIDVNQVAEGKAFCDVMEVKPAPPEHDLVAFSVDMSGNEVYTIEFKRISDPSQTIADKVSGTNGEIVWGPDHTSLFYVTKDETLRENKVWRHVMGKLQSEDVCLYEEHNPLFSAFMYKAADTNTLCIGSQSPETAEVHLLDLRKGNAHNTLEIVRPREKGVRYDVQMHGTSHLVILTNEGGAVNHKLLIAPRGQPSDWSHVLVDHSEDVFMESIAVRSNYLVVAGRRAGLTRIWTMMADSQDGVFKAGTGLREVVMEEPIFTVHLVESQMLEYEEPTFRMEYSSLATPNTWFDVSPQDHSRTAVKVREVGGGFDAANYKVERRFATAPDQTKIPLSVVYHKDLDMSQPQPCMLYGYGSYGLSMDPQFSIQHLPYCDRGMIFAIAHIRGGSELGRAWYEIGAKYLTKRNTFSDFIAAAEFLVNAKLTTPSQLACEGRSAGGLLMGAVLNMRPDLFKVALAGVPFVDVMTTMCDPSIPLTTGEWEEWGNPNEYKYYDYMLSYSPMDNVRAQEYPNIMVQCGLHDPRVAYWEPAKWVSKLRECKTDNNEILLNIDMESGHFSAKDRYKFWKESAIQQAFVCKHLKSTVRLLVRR
The assay is described as follows: inhibition of Bz-R-AMC cleavage in live promastigotes. Format: cell-based.

What is called IC50 is the concentration needed to halve the response being measured. Low readings indicate inhibition by little substance, high ones a need for much substance.

`NCCc1ccc(S(=O)(=O)F)cc1` [AEBSF] displayed a concentration for half-maximal inhibition (IC50) of 14.4 µM.

The values above are taken from article PMC3130898 (Molecular and biochemical parasitology, 2010).
